Several values for one entry are separate records, joined by “and”; a condition that tells them apart may be missing. Equal entries are not always repeated. Where two headings read alike, the source gives them in different places.
Key:
[1] = tested on: DU145 cells; assay: SRB cell viability assay, docetaxel-sensitive DU145 cells; type: cell-based; conditions: Homo sapiens; for viability at 1 pM: docetaxel 0.001 nM 72 h; for viability at 0.000333 µM: docetaxel 0.333 nM 72 h; for viability at 0.001 µM: docetaxel 1 nM 72 h; for viability at 0.00333 µM: docetaxel 3.33 nM 72 h; for viability at 0.01 µM: docetaxel 10 nM 72 h; for viability at 0.0333 µM: docetaxel 33.3 nM 72 h; for viability at 0.1 µM: docetaxel 100 nM 72 h; for IC50: DU-145
Experimental: The chemotherapeutic drugs that were tested for chemosensitization in combination with LTG-E were docetaxel, daunorubicin, Herceptin®, and lapatinib. […] Table 17 also contains the serially-diluted concentrations of drugs that each cell line was tested against.
Using the methods described in Example 2, the chemosensitizing effect of LGT-E pretreatment on docetaxel-treated DU145 cells was studied. […] Table 20 reports control data obtained from DU145 cells that were not pre-treated with LGT-E. FIG. 7 summarizes the data of Tables 19 and 20 in a graphical format.

[2] = tested on: K562 cells; assay: SRB cell viability assay, daunorubicin-sensitive K562 cells; type: cell-based, human; conditions: 72 h, background = 0.044; for mean A at 565 nm: no LGT-E pre-treatment; for mean A at 516 nm: pre-treated with 25 μg/ml LGT-E
Experimental: Cell culture of the above cell lines was performed as described in Example 2, except that 5,000, rather than 3,000 cells were plated per well for the K562, K562/Dox, BT474, SkBr3 lines.
Table 17 also contains the serially-diluted concentrations of drugs that each cell line was tested against.
Table 36 reports the cell viability data relating to pre-treatment with LTG-E prior to daunorubicin treatment. Table 37 reports control data obtained from cells that were not pre-treated with LGT-E prior to daunorubicin treatment. FIG. 15 summarizes the data of Tables 36 and 37 in a graphical format.

[3] = DU-145, read-out: % viable, DU145, LGT-E 50 μg/ml pre-treatment
[4] = DU-145, read-out: % viable, DU145, no LGT-E pre-treatment
[5] = Docetaxel 0.001 nM (so in the source)
[6] = Docetaxel 0.1 nM (so in the source)
[7] = Docetaxel 3.33 nM (so in the source)
[8] = Docetaxel 10 nM (so in the source)
[9] = Docetaxel 33.3 nM (so in the source)
[10] = Docetaxel 100 nM (so in the source)

In the case of `CC(=O)O[C@@]12CO[C@@H]1C[C@H](O)[C@@]1(C)C(=O)[C@H](O)C3=C(C)[C@@H](OC(=O)[C@H](O)[C@@H](NC(=O)OC(C)(C)C)c4ccccc4)C[C@@](O)([C@@H](OC(=O)c4ccccc4)[C@H]21)C3(C)C` [Docetaxel, docetaxel], the viability at 1 pM [1, 3] is reported as 100%, the viability at 0.000333 µM [1, 3] is reported as 100% and the viability at 0.001 µM [1, 3] is reported as 97.4%. The viability at 0.00333 µM [1, 3] was 54%, the viability at 0.01 µM [1, 3] was 23.9% and the viability at 0.0333 µM [1, 3] was 9.6%. The viability at 0.1 µM [1, 3] was 9.3%, the viability at 1 pM [1, 4] was 100% and the viability at 0.0001 µM ([1]; DU-145, read-out: % viable, DU145, no LGT-E pre-treatment, docetaxel 0.1 nM 72 h) was 100%. The viability at 0.000333 µM [1, 4] was 101%, the viability at 0.001 µM [1, 4] was 100% and the viability at 0.00333 µM [1, 4] was 86.9%. It also gave a viability at 0.01 µM [1, 4] of 44.4%, a viability at 0.0333 µM [1, 4] of 24.1% and a viability at 0.1 µM [1, 4] of 21.8%. The IC50 ([1]; read-out: IC50 of drug when cells pre-treated with Chemosensitizing Agent before drug treatment) was 3.39 nM and 0.00274 µg/mL, the IC50 ([1]; read-out: IC50 of drug when cells treated with drug only) was 6.65 nM and 0.00537 µg/mL and the “mean A at 565 nm” value [2, 5] was 2.844. For the same molecule, the “mean A at 516 nm” value [2, 5] was 2.860, the “mean A at 565 nm” value [2, 6] was 2.874 and the “mean A at 516 nm” value [2, 6] was 2.851. For the same molecule, the “mean A at 565 nm” value ([2]; Docetaxel 0.333 nM (so in the source)) was 2.274, the “mean A at 565 nm” value ([2]; Docetaxel 1 nM (so in the source)) was 1.414 and the “mean A at 565 nm” value [2, 7] was 1.269. The “mean A at 516 nm” value [2, 7] was 1.331, the “mean A at 565 nm” value [2, 8] was 0.732 and the “mean A at 516 nm” value [2, 8] was 1.148. The “mean A at 565 nm” value [2, 9] was 0.300, the “mean A at 516 nm” value [2, 9] was 0.723 and the “mean A at 565 nm” value [2, 10] was 0.436. The “mean A at 516 nm” value [2, 10] was 0.553.

Reference: patent US10149876B2, “Tripterygium wilfordii extracts to overcome chemotherapy resistance” (WESTERN UNIVERSITY OF HEALTH SCIENCES, priority 2012, dated 2018)
